We go through two molecules from ChEMBL document CHEMBL1681705, “Optimisation of ITK inhibitors through successive iterative design cycles” (Bioorg Med Chem Lett, 2011).

Assay [1] deals with Ribosomal protein S6 kinase alpha-1 (Homo sapiens) (UniProt Q15418). Description: Inhibition of Rsk1 at 1 uM.
Assay [2] has as its target Tyrosine-protein kinase BTK (Homo sapiens) (UniProt Q06187). Description: Inhibition of BTK at 1 uM; values are per cent of control.
In assay [3] the target is Serine/threonine-protein kinase N2 (Homo sapiens) (UniProt Q16513). The experiment in a line: Inhibition of PRK2 at 1 uM; values are per cent of control.
Assay [4] addresses Protein-tyrosine kinase 2-beta (Homo sapiens) (UniProt Q14289). The experiment in a line: Inhibition of Pyk2 at 1 uM; values are per cent of control.
In assay [5] the target is T1, Ephrin type-B receptor 4 (Homo sapiens) (UniProt P54760).
T1 sequence (whole entry): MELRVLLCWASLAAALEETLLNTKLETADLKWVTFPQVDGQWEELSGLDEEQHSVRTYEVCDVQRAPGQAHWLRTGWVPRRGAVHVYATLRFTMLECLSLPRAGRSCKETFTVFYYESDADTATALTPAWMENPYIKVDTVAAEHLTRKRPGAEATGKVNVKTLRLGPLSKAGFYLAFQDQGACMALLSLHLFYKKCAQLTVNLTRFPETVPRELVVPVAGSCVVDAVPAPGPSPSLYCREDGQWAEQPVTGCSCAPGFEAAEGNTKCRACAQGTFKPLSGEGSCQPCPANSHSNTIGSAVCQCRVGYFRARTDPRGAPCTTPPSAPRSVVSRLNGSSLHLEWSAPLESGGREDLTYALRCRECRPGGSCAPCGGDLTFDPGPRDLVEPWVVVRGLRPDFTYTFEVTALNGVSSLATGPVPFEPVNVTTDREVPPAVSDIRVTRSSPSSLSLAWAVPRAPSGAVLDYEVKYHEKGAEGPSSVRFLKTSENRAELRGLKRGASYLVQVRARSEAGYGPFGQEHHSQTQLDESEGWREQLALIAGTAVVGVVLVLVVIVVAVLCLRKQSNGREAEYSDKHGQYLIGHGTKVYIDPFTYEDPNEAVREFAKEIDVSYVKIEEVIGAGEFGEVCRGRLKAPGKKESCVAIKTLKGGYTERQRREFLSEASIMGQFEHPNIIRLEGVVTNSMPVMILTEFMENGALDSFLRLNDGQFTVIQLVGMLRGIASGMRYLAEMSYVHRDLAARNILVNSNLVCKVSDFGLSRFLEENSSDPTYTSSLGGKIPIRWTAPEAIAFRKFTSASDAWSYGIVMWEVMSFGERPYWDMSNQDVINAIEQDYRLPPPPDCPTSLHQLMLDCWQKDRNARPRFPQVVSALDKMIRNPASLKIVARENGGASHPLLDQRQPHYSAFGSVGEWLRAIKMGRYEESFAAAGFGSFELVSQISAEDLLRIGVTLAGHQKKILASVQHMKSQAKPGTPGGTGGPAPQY
Description: Inhibition of EphB4 at 1 uM; values are per cent of control.

Assay [6] concerns the target T2, Tyrosine-protein kinase ZAP-70 (Homo sapiens) (UniProt P43403).
T2 sequence (whole entry): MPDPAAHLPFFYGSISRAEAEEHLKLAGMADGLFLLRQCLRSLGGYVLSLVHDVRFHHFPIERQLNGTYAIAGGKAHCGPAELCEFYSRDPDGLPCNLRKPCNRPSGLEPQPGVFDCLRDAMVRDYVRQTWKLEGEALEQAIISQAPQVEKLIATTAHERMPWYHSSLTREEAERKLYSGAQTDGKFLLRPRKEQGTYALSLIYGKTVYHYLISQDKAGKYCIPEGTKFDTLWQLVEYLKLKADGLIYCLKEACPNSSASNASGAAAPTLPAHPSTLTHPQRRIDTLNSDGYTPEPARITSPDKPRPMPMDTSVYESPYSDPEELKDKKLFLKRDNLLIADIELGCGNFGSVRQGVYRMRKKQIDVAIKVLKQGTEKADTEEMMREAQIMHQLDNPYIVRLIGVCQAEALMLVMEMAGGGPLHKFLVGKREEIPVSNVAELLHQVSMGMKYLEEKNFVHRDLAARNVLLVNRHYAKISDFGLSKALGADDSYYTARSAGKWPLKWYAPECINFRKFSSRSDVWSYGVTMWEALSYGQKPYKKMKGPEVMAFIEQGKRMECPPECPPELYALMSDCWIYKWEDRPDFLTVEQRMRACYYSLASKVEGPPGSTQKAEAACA
Description: Inhibition of ZAP70 at 1 uM; values are per cent of control.

For assay [7], the target named is T1, Ephrin type-B receptor 4 (Homo sapiens). The experiment in a line: Inhibition of EphB4 at 0.1 uM; values are per cent of control.
Assay [8] addresses Interleukin-1 receptor-associated kinase 1 (Homo sapiens) (UniProt P51617). Description: Inhibition of IRAK1 at 0.1 uM; values are per cent of control.
The target of assay [9] is T3, Protein kinase C epsilon type (Homo sapiens) (UniProt Q02156).
T3 sequence (whole entry): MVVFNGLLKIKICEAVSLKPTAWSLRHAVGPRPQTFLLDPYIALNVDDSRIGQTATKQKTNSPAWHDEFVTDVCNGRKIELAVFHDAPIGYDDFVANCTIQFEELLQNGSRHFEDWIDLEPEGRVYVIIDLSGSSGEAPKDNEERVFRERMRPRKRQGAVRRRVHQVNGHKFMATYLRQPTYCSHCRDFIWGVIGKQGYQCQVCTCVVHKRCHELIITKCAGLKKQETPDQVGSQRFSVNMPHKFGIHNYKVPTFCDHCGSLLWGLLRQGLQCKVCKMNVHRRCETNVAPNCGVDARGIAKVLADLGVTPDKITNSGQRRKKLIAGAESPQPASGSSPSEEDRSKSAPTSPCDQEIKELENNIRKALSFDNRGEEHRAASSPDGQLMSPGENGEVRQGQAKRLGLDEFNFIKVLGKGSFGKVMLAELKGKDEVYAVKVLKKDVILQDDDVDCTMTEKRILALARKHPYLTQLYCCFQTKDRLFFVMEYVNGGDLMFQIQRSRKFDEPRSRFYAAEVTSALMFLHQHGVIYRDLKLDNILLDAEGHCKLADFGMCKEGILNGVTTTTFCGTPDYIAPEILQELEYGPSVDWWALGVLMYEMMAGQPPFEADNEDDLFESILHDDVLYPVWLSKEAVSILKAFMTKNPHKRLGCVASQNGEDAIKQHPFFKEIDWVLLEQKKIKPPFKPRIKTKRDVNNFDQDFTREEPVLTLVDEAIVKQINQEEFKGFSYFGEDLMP
The experiment in a line: Inhibition of PKCepsilon at 0.1 uM; values are per cent of control.

Chain of Tyrosine-protein kinase BTK (Homo sapiens) (Q06187 whole entry): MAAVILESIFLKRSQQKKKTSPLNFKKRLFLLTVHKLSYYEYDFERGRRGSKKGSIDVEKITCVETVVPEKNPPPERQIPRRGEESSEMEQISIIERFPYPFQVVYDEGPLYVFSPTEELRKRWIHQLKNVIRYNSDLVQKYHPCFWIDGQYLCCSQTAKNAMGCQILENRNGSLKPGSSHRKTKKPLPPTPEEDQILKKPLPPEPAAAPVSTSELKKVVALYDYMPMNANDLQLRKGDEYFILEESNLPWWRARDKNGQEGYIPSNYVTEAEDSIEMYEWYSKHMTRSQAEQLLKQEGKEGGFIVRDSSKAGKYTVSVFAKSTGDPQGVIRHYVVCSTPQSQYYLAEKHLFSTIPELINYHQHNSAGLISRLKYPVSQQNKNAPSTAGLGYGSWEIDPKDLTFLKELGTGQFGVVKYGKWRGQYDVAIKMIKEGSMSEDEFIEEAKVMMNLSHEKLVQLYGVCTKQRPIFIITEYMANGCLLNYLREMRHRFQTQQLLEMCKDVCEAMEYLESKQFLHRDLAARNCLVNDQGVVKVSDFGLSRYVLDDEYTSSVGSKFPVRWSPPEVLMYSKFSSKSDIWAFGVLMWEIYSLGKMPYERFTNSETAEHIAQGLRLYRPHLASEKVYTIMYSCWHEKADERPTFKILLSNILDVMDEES
Chain of Serine/threonine-protein kinase N2 (Homo sapiens) (Q16513 whole entry, looked up): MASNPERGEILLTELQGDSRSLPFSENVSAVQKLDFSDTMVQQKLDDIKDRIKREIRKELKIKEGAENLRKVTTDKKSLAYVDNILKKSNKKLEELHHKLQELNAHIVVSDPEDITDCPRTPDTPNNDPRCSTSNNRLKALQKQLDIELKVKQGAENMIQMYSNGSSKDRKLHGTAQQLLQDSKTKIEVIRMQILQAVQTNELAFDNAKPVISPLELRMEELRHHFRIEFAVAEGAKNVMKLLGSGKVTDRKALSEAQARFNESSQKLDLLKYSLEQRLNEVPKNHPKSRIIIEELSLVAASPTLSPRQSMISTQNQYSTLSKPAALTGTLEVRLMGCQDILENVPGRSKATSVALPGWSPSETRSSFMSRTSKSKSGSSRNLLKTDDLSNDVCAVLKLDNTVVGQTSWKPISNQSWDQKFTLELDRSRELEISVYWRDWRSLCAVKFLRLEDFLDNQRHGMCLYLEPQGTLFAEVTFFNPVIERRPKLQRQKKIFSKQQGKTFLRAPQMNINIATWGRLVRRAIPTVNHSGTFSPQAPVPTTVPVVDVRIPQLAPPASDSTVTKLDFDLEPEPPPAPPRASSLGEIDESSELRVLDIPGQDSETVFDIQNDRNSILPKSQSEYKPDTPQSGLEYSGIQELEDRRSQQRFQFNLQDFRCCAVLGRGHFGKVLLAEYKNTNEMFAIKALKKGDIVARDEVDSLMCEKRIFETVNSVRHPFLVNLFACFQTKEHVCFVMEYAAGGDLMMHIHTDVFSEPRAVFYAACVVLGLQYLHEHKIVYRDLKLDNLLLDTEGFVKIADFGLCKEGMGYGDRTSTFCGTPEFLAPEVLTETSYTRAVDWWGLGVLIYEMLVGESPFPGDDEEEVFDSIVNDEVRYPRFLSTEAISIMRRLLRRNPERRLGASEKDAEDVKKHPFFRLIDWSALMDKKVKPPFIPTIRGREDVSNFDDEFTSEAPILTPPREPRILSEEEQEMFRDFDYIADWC
Chain of Interleukin-1 receptor-associated kinase 1 (Homo sapiens) (P51617 whole entry, looked up): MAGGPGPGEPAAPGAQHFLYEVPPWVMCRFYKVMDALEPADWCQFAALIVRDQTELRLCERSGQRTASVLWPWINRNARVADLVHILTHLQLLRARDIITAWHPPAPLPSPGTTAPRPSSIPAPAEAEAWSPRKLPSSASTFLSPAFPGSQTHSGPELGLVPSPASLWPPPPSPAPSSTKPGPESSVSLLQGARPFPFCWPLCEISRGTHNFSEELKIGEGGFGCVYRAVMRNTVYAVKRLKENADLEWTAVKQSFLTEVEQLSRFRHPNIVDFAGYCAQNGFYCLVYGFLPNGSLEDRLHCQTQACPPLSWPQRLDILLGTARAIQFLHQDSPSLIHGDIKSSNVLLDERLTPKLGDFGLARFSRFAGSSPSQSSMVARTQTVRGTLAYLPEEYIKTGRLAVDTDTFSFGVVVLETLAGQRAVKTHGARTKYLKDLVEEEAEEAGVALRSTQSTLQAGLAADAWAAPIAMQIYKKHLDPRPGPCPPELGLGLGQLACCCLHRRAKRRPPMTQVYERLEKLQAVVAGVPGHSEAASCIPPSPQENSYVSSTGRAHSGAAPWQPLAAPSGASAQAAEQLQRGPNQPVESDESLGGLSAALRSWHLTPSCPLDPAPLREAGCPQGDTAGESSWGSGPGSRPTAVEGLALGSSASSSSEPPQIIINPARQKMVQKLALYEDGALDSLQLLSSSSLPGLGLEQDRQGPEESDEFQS
Chain of Protein-tyrosine kinase 2-beta (Homo sapiens) (Q14289 whole entry, looked up): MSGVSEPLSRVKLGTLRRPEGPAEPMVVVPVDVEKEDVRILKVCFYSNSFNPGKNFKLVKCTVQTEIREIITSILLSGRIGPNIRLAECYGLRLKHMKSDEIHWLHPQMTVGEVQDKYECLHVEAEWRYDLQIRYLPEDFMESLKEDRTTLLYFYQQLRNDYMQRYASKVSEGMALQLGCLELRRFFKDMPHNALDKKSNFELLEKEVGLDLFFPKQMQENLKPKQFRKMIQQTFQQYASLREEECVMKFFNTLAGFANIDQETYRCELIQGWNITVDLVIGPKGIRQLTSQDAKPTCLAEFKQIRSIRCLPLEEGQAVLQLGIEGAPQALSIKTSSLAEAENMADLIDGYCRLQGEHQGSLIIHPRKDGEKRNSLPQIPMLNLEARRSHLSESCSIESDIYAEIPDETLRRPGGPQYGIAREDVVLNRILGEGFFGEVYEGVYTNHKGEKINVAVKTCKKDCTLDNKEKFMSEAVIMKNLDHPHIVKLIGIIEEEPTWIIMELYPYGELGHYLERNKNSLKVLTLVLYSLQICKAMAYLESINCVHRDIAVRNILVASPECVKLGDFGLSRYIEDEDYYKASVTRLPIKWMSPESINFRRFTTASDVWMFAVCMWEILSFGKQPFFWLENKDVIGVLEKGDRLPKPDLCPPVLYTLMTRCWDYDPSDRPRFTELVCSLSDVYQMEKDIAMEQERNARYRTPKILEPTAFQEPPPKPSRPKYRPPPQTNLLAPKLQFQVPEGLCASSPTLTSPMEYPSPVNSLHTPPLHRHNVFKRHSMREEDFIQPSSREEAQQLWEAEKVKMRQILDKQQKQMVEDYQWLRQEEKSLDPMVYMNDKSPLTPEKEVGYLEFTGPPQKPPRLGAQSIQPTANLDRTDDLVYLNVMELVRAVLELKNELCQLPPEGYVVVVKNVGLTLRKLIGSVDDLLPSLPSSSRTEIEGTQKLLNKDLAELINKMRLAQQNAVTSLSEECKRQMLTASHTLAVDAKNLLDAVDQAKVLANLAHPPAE
Chain of Ribosomal protein S6 kinase alpha-1 (Homo sapiens) (Q15418 whole entry): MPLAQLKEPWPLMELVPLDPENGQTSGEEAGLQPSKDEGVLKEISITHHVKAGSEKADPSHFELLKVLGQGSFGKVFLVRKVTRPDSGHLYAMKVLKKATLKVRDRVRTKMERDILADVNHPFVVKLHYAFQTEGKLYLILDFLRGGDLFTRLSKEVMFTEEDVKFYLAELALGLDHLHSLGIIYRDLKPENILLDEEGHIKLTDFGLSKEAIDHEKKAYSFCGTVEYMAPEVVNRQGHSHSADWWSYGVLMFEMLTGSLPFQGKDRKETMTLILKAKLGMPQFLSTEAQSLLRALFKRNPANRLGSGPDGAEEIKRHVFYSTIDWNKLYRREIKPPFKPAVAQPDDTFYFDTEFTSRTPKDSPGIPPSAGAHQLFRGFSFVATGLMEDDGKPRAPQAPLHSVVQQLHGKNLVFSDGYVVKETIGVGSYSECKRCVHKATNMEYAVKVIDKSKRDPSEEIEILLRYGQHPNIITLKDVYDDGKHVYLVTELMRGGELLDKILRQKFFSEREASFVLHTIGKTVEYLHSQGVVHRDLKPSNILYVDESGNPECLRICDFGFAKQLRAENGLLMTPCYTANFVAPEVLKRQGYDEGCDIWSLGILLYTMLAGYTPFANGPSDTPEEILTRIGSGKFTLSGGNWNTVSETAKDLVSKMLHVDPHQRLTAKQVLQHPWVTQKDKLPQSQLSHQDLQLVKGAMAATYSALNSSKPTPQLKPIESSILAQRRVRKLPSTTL

Turning to `Cc1ccc2cc(-c3n[nH]c4ccc(NC5CCNC5)cc34)[nH]c2c1` (stereo not drawn), the inhibition in [1] was -1%. In addition, the residual activity was determined as 10% in assay [2]; 49% in [3]; 8% in [4]; 62% in [5]; 35% in assay [6]; 106% in assay [7]. Further, the residual activity was 56% in assay [8] and 30% in assay [9].
For `Cc1ccc2cc(-c3n[nH]c4ccc(NC5CCN(Cc6ccccc6)CC5)cc34)[nH]c2c1`, in [1], the inhibition was found to be 1%. Also, the residual activity was -4% in assay [2]; 3% in [3]; 10% in [4]; 92% in assay [5]; 75% in assay [6]; 101% in assay [7]. For the same molecule, the values for the residual activity in assay [8] and in [9] were 47% and 86%, respectively.

As a reminder, the inhibition is the drop in the measured response relative to a control, in per cent. By residual activity is commonly meant the signal under treatment as a percentage of the control signal.
